In publication PMC7377239, “Cardiovascular Effects of Polychlorinated Biphenyls and Their Major Metabolites” (Environmental Health Perspectives, 2020):
Like-named read-outs stand apart in the source and are kept apart here.

What was measured:
[1] = tested on: iCell cardiomyocytes (human iPSC-derived cardiomyocytes); assay: High-content imaging of cytotoxicity and mitochondrial integrity in iPSC-CMs; assay type: cell-based; details: Homo sapiens, Cardiomyocyte; for viability at 0.01 µM / activity at 0.01 µM / viability at 0.1 µM / activity at 0.1 µM / viability at 1 µM / activity at 1 µM / viability at 10 µM / activity at 10 µM / viability at 100 µM / activity at 100 µM: 0.00 µM = 100.00; for viability at 0.1 µM / activity at 0.1 µM: 0.10 µM
Method in brief: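 Readouts from high-content images were normalized to vehicle controls containing 0.5% vol/vol DMSO. They were fit to a four-parameter logistic model in R. Points of departure were set using a cutoff of one standard deviation across vehicle control means. Where no concentration–response was seen, the top tested concentration of 100μM was assigned as the no observable adverse effect level.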

[2] = tested on: HUVECs; assay: High-content imaging cytotoxicity in HUVECs, 24 h; assay type: cell-based, human; details: Homo sapiens, HUVEC, 24 h, HUVECs; for viability at 0.01 µM / activity at 0.01 µM: concentration 0.01 µM; for viability at 0.01 µM / activity at 0.01 µM / viability at 0.1 µM / activity at 0.1 µM / viability at 1 µM / activity at 1 µM / viability at 10 µM / activity at 10 µM / viability at 100 µM / activity at 100 µM: 0.00 µM = 100.00; for viability at 0.1 µM / activity at 0.1 µM: concentration 0.10 µM; for viability at 1 µM / activity at 1 µM: concentration 1.00 µM; for viability at 10 µM / activity at 10 µM: concentration 10.00 µM; for viability at 100 µM / activity at 100 µM: concentration 100.00 µM; for minimal effective concentration: MAX 100.00
Method in brief: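 Point-of-departure values derive from four-parameter logistic fits of vehicle-normalized imaging phenotypes (Hoechst 33342, MitoTracker Orange, calcein AM). The fits follow 24 h exposure of HUVEC monolayers at 37°C and 5% CO2, with a top tested concentration of 100μM.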

[3] = 1.5 h, 90min, read-out: cm.cam.90min
[4] = 1.5 h, 90min, read-out: cm.mii.90min
[5] = 1.5 h, 90min, read-out: cm.mito.90min
[6] = 1.5 h, 90min, read-out: cm.tc.90min
[7] = 24 h, 24hrs, read-out: cm.cam.24hrs
[8] = 24 h, 24hrs, read-out: cm.mii.24hrs
[9] = 24 h, 24hrs, read-out: cm.mito.24hrs
[10] = 24 h, 24hrs, read-out: cm.tc.24hrs
[11] = 24 hr, read-out: huvec.cyto.24hr
[12] = 24 hr, read-out: huvec.mito.24hr
[13] = 24 hr, read-out: huvec.mitoint.24hr
[14] = 24 hr, read-out: huvec.nma.24hr
[15] = 24 hrs, read-out: huvec.tc.24hrs

Compound: Clc1ccc(Cl)c(-c2c(Cl)ccc(Cl)c2Cl)c1 [PCB95]
- viability at 0.01 µM [1, 3]: 98.2%
- activity at 0.01 µM [1, 4]: 114%
- activity at 0.01 µM [1, 5]: 97.8%
- viability at 0.01 µM [1, 6]: 97.9%
- viability at 0.1 µM [1, 3]: 95.8%
- activity at 0.1 µM [1, 4]: 100%
- activity at 0.1 µM [1, 5]: 95.4%
- viability at 0.1 µM [1, 6]: 95.4%
- viability at 1 µM [1, 3]: 93.8%
- activity at 1 µM [1, 4]: 109%
- activity at 1 µM [1, 5]: 93.2%
- viability at 1 µM [1, 6]: 93.1%
- viability at 10 µM [1, 3]: 107%
- activity at 10 µM [1, 4]: 110%
- activity at 10 µM [1, 5]: 107%
- viability at 10 µM [1, 6]: 107%
- viability at 100 µM [1, 3]: 0.65%
- activity at 100 µM [1, 4]: 92.8%
- activity at 100 µM [1, 5]: 0.97%
- viability at 100 µM [1, 6]: 1.11%
- minimal effective concentration ([1]; 1.5 h, 90min, read-out: cm.cam.90min POD): 36.6 µM
- minimal effective concentration ([1]; 1.5 h, 90min, read-out: cm.mii.90min POD): 100 µM
- minimal effective concentration ([1]; 1.5 h, 90min, read-out: cm.mito.90min POD): 39.6 µM
- minimal effective concentration ([1]; 1.5 h, 90min, read-out: cm.tc.90min POD): 38.7 µM
- viability at 0.01 µM [1, 7]: 97.2%
- activity at 0.01 µM [1, 8]: 90.3%
- activity at 0.01 µM [1, 9]: 95.7%
- viability at 0.01 µM [1, 10]: 97.3%
- viability at 0.1 µM [1, 7]: 98.9%
- activity at 0.1 µM [1, 8]: 99%
- activity at 0.1 µM [1, 9]: 99%
- viability at 0.1 µM [1, 10]: 99%
- viability at 1 µM [1, 7]: 99.8%
- activity at 1 µM [1, 8]: 100%
- activity at 1 µM [1, 9]: 97.7%
- viability at 1 µM [1, 10]: 98.7%
- viability at 10 µM [1, 7]: 93.8%
- activity at 10 µM [1, 8]: 95.1%
- activity at 10 µM [1, 9]: 92.7%
- viability at 10 µM [1, 10]: 93.5%
- viability at 100 µM [1, 7]: 1.96%
- activity at 100 µM [1, 8]: 34.3%
- activity at 100 µM [1, 9]: 1.73%
- viability at 100 µM [1, 10]: 2.9%
- minimal effective concentration ([1]; 24 h, read-out: cm.cam.24hrs POD): 8.98 µM
- minimal effective concentration ([1]; 24 h, read-out: cm.mii.24hrs POD): 22.2 µM
- minimal effective concentration ([1]; 24 h, read-out: cm.mito.24hrs POD): 8.96 µM
- minimal effective concentration ([1]; 24 h, read-out: cm.tc.24hrs POD): 8.75 µM
- viability at 0.01 µM [2, 11]: 81%
- activity at 0.01 µM [2, 12]: 79.4%
- activity at 0.01 µM [2, 13]: 106%
- activity at 0.01 µM [2, 14]: 97.4%
- viability at 0.1 µM [2, 11]: 85.5%
- activity at 0.1 µM [2, 12]: 84.2%
- activity at 0.1 µM [2, 13]: 109%
- activity at 0.1 µM [2, 14]: 98.6%
- viability at 1 µM [2, 11]: 94.8%
- activity at 1 µM [2, 12]: 93.4%
- activity at 1 µM [2, 13]: 106%
- activity at 1 µM [2, 14]: 98.7%
- viability at 10 µM [2, 11]: 70.3%
- activity at 10 µM [2, 12]: 63.8%
- activity at 10 µM [2, 13]: 76.7%
- activity at 10 µM [2, 14]: 86.4%
- viability at 100 µM [2, 11]: 64.5%
- activity at 100 µM [2, 12]: 50.7%
- activity at 100 µM [2, 13]: 18.7%
- activity at 100 µM [2, 14]: 56.5%
- minimal effective concentration ([2]; 24 hr, read-out: huvec.cyto.24hr POD): 0.01 µM
- minimal effective concentration ([2]; 24 hr, read-out: huvec.mito.24hr POD): 0.022 µM
- minimal effective concentration ([2]; 24 hr, read-out: huvec.mitoint.24hr POD): 7.41 µM
- minimal effective concentration ([2]; 24 hr, read-out: huvec.nma.24hr POD): 1.93 µM
- viability at 0.01 µM [2, 15]: 81%
- viability at 0.1 µM [2, 15]: 85.5%
- viability at 1 µM [2, 15]: 94.8%
- viability at 10 µM [2, 15]: 70.3%
- viability at 100 µM [2, 15]: 64.5%
- minimal effective concentration ([2]; 24 hrs, read-out: huvec.tc.24hrs POD): 0.01 µM
